Measurements: patent publication US9604987B2, “Synthesis of autophagy inducing compound and the uses thereof” (Hong Kong Baptist University, priority 2012, dated 2017)

Experiments:
N2a GFP-LC3 cells = assay: GFP-LC3 puncta formation in N2a cells constantly expressing GFP-LC3 (confocal); assay type: cell-based, mouse; conditions: for pro-autophagic activity (GFP-LC3 puncta): 50 μM, 12 hours
Method: Cell imaging and puncta counting. Cells were fixed in 3.7% paraformaldehyde (158127, Sigma) for 10 minutes and mounted with FluorSave reagent. Cell images were recorded using a fluorescence microscope or confocal microscope. GFP or RFP Puncta number were counted in cells as described previously. Briefly, the GFP-LC3 or RFP-LC3 puncta in each cell were manually counted, and at least 50 cells were randomly selected for counting in each group. The data presented were from one representative experiment of at least 3 independent experiments.
Further, a neuroblastoma cell line N2a constantly expressing GFP-LC3 (a standard autophagy marker protein) is established. The formation of GFP-LC3 puncta under Cory B treatment is observed under a confocal microscope. Data is presented as the mean±SEM of one representative experiment from three independent experiments. (*p<0.05, ***p<0.001, one-way ANOVA for multiple comparison and Tukey's test as post hoc test).
To confirm that enhancement of autophagy markers by Cory B is due to induction of autophagy rather than blockage of autophagosome maturation, N2a cells are treated with 25 μM Cory B or 30 μM lysosome inhibitor CQ together with Cory B for 12 hours. Cell lysates are subject to western blot analysis. Data are presented as the mean±SEM from 3 independent experiments (***p<0.001, one-way ANOVA for multiple comparison and Tukey's test as post hoc test). Both LC3-II levels and the number of GFP-LC3 puncta in the Cory B and CQ co-treatment group are much higher than in the CQ-alone treatment group (FIG. 2A-D). Meanwhile, Cory B induces GFP-LC3 puncta formation is abolished by treatment of 5 mM autophagy inhibitor 3-MA for 24 hours (FIG. 2C, D). Cells were fixed in 4% paraformaldehyde and analyzed under a confocal microscope. Data are presented as the mean±SEM of one representative experiment from three independent experiments. (***p<0.001, one-way ANOVA for multiple comparison and Tukey's test as post hoc test). […] Thus, Cory B is indeed an autophagy inducer in neuronal cells.
In order to observe the pro-autophagic activity of CB6 and CB8 intuitively, N2a cells constantly expressing GFP-LC3 are treated with 50 μM Cory B, CB6 and CB8 for 12 hours respectively. The cells are than fixed with 4% paraformaldehyde (Sigma, 158127) for 10 minutes, and then mounted with VECTASHIELD hardset anti-fade mounting medium. The mounted samples are then subjected to confocal microscopy analysis.
After designated treatments, N2a cells constantly expressing GFP-LC3 were fixed with 4% paraformaldehyde (Sigma, 158127) for 10 min, and then mounted with VECTASHIELD hardset antifade mounting medium. The mounted samples were then subjected to confocal microscopy analysis.

[1] = tested on: phosphorylated mTOR and P70S6K; assay: Western blot of mTOR pathway and other autophagy pathways in N2a cells; assay type: cell-based, mouse
Method: FIG. 7: Western blot analysis of expression level of phosphorylated mTOR (p-mTOR) or its substrate P70S6K (p-P70S6K) in N2a cells with treatment of 25 μM Cory B or 0.2 μM rapamycin for 6 hours (FIG. 7A); western blot analysis of Beclin 1 expression in N2a cells with non-target or Beclin 1-specific siRNA treatments followed by Cory B (FIG. 7B)
To elucidate the molecular mechanism of Cory B action, the classic autophagy controlling pathway, the mTOR pathway is first examined.

Drosophila fat body = assay: Atg8a-EGFP puncta in Drosophila fat body (confocal); assay type: in vivo; conditions: L3 larvae, 100 μM, 6 hours
Method: To further test whether CB6 and CB8 could induce autophagy in vivo, Drosolphila expressing Atg8a-GFP (Atg8a, Drosophila homologue of LC3) are obtained by crossing Cg-GAL4, a GAL4 line drives transgene expression in fat body, with UAS-Atg8a-EGFP. Crossed flies are allowed to lay eggs for 1 hour, 90 hours later, the L3 larvae are collected and treated with 100 μM of Cory B, CB6 and CB8 for 6 hours respectively. After treatment, the fat body lobes of the larvae are harvested with fine forceps and fixed with 4% PFA in PBS at room temperature for 15 minutes. Fat body lobes are then washed with PBS three times and subsequently mounted with VECTASHIELD hardset anti-fade mounting medium. The slides are then subjected to confocal microscopy analysis.
Crossed flies were allowed to lay eggs for 1 hr, 90 hrs later, the L3 larvae were collected for further treatment. The compounds were firstly dissolved in DMSO and then diluted to the desired concentration with ddH2O and then mixed thoroughly with instant fly food. The L3 larvae were placed in the prepared food and received treatment for 6 hrs. After treatment, the fat body lobes of the larvae were harvested with fine forceps and fixed with 4% PFA in PBS at room temperature for 15 min. Fat body lobes were then washed with PBS three times and subsequently mounted with VECTASHIELD hardset antifade mounting medium. […]

[2] = tested on: rat primary cortical neurons; assay: LC3 immunoblot in primary cultured rat cortical neurons; assay type: cell-based; conditions: different concentrations, 24 hours
Method: To further confirm the pro-autophagic effect of CB6 and CB8 on primary neurons, rat primary cortical neurons isolated from E17 rats are used in the study. The primary neurons are treated with different concentrations of CB6 and CB8 respectively for 24 hours, and autophagic markers LC3 is detected by immunoblot analysis.
The E16 pregnant rat was anesthetized by intraperitoneal injection with 3% chloral hydrate in normal saline (1 ml/100 g bdw). The uterus containing embryos were dissected and transferred to a Petri dish, and then the embryos were collected on a new petri dish containing ice cold PBS. The brains of the embryos were then dissected under stereoscope and the cortices of the brains were placed in a Petri dish containing ice cold 10% FBS DMEM. The meninges of the cortices were removed carefully and then transferred to a 15 ml tube. Total 5 ml of digestion solution (1.25% Trypsin diluted with DMEM/F12 medium) were added into the tube containing meninges-free cortices and then incubated at 37° C. for 15 min. The digestion was stopped by adding 10% FBS DMEM/F12 supplemented with 10 μg/ml DNase (Sigma, DN25). […] The viable cells without staining with typan blue were then counted under microscope. […]

Row | Structure (SMILES) | GFP-LC3 puncta formation in presence of autophagy inhibitor 3-MA (N2a GFP-LC3 cells; 5 mM 3-MA, 24 hours) | GFP-LC3 puncta formation (N2a GFP-LC3 cells; N2a GFP-LC3 cells, Cory B treatment) | phosphorylated mTOR and p-P70S6K levels ([1]; 25 μM Cory B or 0.2 μM rapamycin, 6 hours) | AKT, AMPK, MEK/ERK, JNK, ER stress and calcium signaling pathways ([1]; data not shown) | autophagy in vivo (Atg8a-EGFP puncta) (Drosophila fat body) | pro-autophagic activity (GFP-LC3 puncta) (N2a GFP-LC3 cells) | autophagy (LC3 immunoblot) [2]
1 | CC[C@@H]1CN2CC[C@]3(C(=O)Nc4ccccc43)C2C[C@@H]1C(=COC)C(=O)OC (stereo partly shown) [Cory B, Corynoxine B] | abolished | induces massive GFP-LC3 puncta formation | neither phosphorylated mTOR nor its substrate P70S6K are affected | none of the above mentioned pathways are altered |  |  | 
2 | C=CCN1C(=O)[C@]2(CCN3C[C@@H](CC)[C@@H](/C(=C\OC)C(=O)OC)C[C@H]32)c2ccccc21 [CB8] |  |  |  |  | able to induce autophagy | confirmed to be autophagy inducers | induced autophagy
3 | CCCN1C(=O)[C@]2(CCN3C[C@@H](CC)[C@@H](/C(=C\OC)C(=O)OC)C[C@H]32)c2ccccc21 [CB6] |  |  |  |  | able to induce autophagy | confirmed to be autophagy inducers | induced autophagy
